Measurements reported in patent publication US20110201569A1, “Methods For Treating Myocardial Disorders” (priority 2009, published 2011).
Entries after “also recorded” stand apart in the source; their conditions may differ.

Assays:
Assay type in all cases: in vivo, mouse
IL-6 = experiment: ELISA of IL-6 protein in myocardial tissue after TAC/sham
Protocol: (§1) 11 to 13 week old male C57BL/6 mice were purchased from Charles River (Germany). Mice were housed in individually ventilated pathogen-free cages with free access to water and standard rodent chow. The animals were handled according to the principles of laboratory animal care (NIH publication No. 85-23, revised 1996), and animal procedures were approved by the local committee for animal care.
The first injection was performed 5 min prior to TAC or sham-operation procedure (described below) and repeated 4, 8, 12, 24, 36, 48 and 60 hrs after surgery. Animals were randomly assigned into two groups, receiving either a tetrasodium salt of the compound of formula 1 (hereinafter “Eritoran tetrasodium”) or placebo. […]
For ELISA assays, proteins from snap-frozen myocardial tissue were isolated and cytosolic and nuclear proteins separated according to the manufacturer's protocol (NE-PER®, Nuclear and Cytoplasmic Extraction Kit, Pierce®, Thermo Scientific, IL, USA). Myocardial protein levels in the cytoplasmic fraction were detected with Quantikine mouse IL-1β as well as IL-6 ELISA (R&D Systems, […], USA) as described in the manufacturer's protocol. […] Protein concentration was determined by B CA protein assay (Pierce®).
(§2) Statistics were calculated using Prism 4.05 (GraphPad Software Inc., CA, USA). All values are expressed as mean (M)±SEM. […]

TIMP-1 = experiment: qRT-PCR of TIMP-1 mRNA in left ventricle after TAC/sham
Protocol: as §1
(§3) The first injection was performed 5 min prior to TAC or sham-operation procedure (described below) and repeated 4, 8, 12, 24, 36, 48 and 60 hrs after surgery. Animals were randomly assigned into two groups, receiving either a tetrasodium salt of the compound of formula 1 (hereinafter “Eritoran tetrasodium”) or placebo. The catheter was flushed with 50 μl 0.9% NaCl before and 100 μl after each injection of 50 μl Eritoran tetrasodium (2.5 mg/ml vehicle; 5 mg/kg bodyweight/application; dosage adopted from Shimamoto et al., Circulation 2006, 114: 1270-1274) or placebo solution.
Treatment groups were separated into two subgroups, undergoing transverse aortic constriction (TAC) or sham operation. […]
(§4) Quantitative real-time PCR analysis was completed. […] RNA was dissolved in 100 μl of RNase-free water, and concentration was determined photometrically (absorbance at 260 nm) before storage at −80° C. […]
(§5) Real-time PCR was performed according to the manufacturer's protocol. […] Each sample was measured in triplicate wells and underwent 40 cycles of amplification on an ABI PRISM® Sequence Detection System (Applied Biosystems). CT values were determined with SDS Software 2.2 (Applied Biosystems) and relative quotients (RQ) were calculated following the ΔΔCT method (RQ target gene/GAPDH).
(§6) Statistics were calculated using Prism 4.05 (GraphPad Software Inc., CA, USA). All values are expressed as mean (M)±SEM. One-way ANOVA with Newman-Keuls post-hoc testing was performed for statistical analysis with the exception of TIMP and cytokine expression which were analysed with Kruskal-Wallis and Dunn's multiple comparison post-hoc testing Impact of TAC-Eritoran on IL-10 expression was analysed with Two-way ANOVA. […]

[1] = tested on: atrial natriuretic peptide (ANP); experiment: qRT-PCR of ANP mRNA in left ventricle after TAC/sham
Protocol: as §1
(§7) The first injection was performed 5 min prior to TAC or sham-operation procedure (described below) and repeated 4, 8, 12, 24, 36, 48 and 60 hrs after surgery. […]
as §4, §5, §2

[2] = tested on: matrix metalloproteinase-9 (MMP-9); experiment: qRT-PCR of MMP-9 mRNA in left ventricle after TAC/sham
Protocol: as §1, §7, §4, §5, §2

[3] = tested on: matrix metalloproteinase-2 (MMP-2); experiment: qRT-PCR of MMP-2 mRNA in left ventricle after TAC/sham
Protocol: as §1, §7, §4, §5, §2

MMP-9 = experiment: Gelatine zymography of MMP activity in left ventricular tissue after TAC
Protocol: as §1
The first injection was performed 5 min prior to TAC or sham-operation procedure (described below) and repeated 4, 8, 12, 24, 36, 48 and 60 hrs after surgery. Animals were randomly assigned into two groups, receiving either a tetrasodium salt of the compound of formula 1 (hereinafter “Eritoran tetrasodium”) or placebo. The catheter was flushed with 50 μl 0.9% NaCl before and 100 μl after each injection of 50 μl Eritoran tetrasodium (2.5 mg/ml vehicle; 5 mg/kg bodyweight/application; dosage adopted from Shimamoto et al., Circulation 2006, 114: 1270-1274) or placebo solution. […]
For zymographic measurement of MMP activity, protein isolates from left ventricular tissue (60 μg protein content, isolated with NE-PER protein isolation kit; Pierce®) were mixed with 2× Tris-Glycine SDS sample buffer, and loaded on precast zymogram gels (SDS-PAGE; BioRad, Germany) containing […]. […] Areas of protease activity were detected as transparent bands against blue background. […]

IL-10 = experiment: qRT-PCR of IL-10 mRNA in left ventricle after TAC/sham; conditions: for IL-10 mRNA level: three days after surgery, qRT-PCR, M ± SEM
Protocol: as §1, §3
Treatment groups were separated into two subgroups, undergoing transverse aortic constriction (TAC) or sham operation. Surgery for TAC was achieved as published previously (see, e.g., Baumgarten et al., Circulation 2002, 105: 2192-2197 and Baumgarten et al., Basic Res Cardiol 2006, 101: 427-435). Mice were intubated in a supine position and mechanical ventilation was initiated (MiniVent 845, Hugo Sachs Elektronik, Germany). A left parasternal incision was performed. A suture was passed underneath the aorta and tied down on a 27 Gauge needle, which was immediately removed and allowed to achieve a standardised and previously validated decreased diameter of the aorta. For sham operation the suture was passed underneath the aorta without ligation. […]
as §4, §5, §6

[4] = Example 1, TAC, three days after surgery
[5] = Example 1, TAC vs sham within treated groups, three days after surgery
[6] = Example 2, TAC treated vs TAC-placebo

Row | SMILES | IL-6 protein expression (ELISA) (IL-6; [4]) | TIMP-1 mRNA expression (TIMP-1; Example 1, TAC, three days after surgery, RQ target gene/GAPDH) | TIMP-1 mRNA expression (TIMP-1; Example 1, sham operation, three days after surgery, RQ target gene/GAPDH) | ANP mRNA expression ([1]; Example 1, TAC, vs TAC placebo, three days after surgery) | MMP-9 mRNA level [2, 5] | MMP-2 mRNA level [3, 5] | MMP (MMP-9) zymographic activity (MMP-9; [4]) | IL-10 mRNA level (IL-10; Example 1, TAC) [b] | elevation of IL-10 mRNA (IL-10; Example 1, in sham and TAC groups, p<0.05, Two-way Anova) | IL-10 mRNA level (IL-10; Example 1, sham operation) [b] | IL-6 protein expression (IL-6; Example 2, TAC treated group) | TIMP-1 mRNA expression (TIMP-1; [6]) | ANP mRNA expression [1, 6] | MMP-9 mRNA expression [2, 6] | MMP-2 mRNA expression [3, 6] | MMP-9 zymographic activity (MMP-9; [6]) | IL-10 mRNA expression (IL-10; [6])
1 | CCCCCC/C=C\CCCCCCCCCC(=O)N[C@H]1[C@H](OC[C@H]2O[C@H](OP(=O)([O-])[O-])[C@H](NC(=O)CC(=O)CCCCCCCCCCC)[C@@H](OCCCCCCCCCC)[C@@H]2O)O[C@H](COC)[C@@H](OP(=O)([O-])[O-])[C@@H]1OCC[C@@H](CCCCCCC)OC.[Na+].[Na+].[Na+].[Na+] [Eritoran tetrasodium] | did not display significant increases; also recorded: lower levels of pro-inflammatory cytokines compared to TAC placebo hearts (not significant) | 23.20±14.52 | 1.16±0.40 | markedly decreased BNP but not ANP expression | remained unchanged by aortic banding | remained unchanged by aortic banding | attenuated; also recorded: reduced zymographic activity of MMP-9 | 4.71 ± 1.22 | three to four fold elevation | 3.81 ± 1.69 |  |  |  |  |  |  | 
2 | CCCCCC/C=C\CCCCCCCCCC(=O)N[C@H]1[C@H](OC[C@H]2O[C@H](OP(=O)(O)O)[C@H](NC(=O)CC(=O)CCCCCCCCCCC)[C@@H](OCCCCCCCCCC)[C@@H]2O)O[C@H](COC)[C@@H](OP(=O)(O)O)[C@@H]1OCC[C@@H](CCCCCCC)OC [compound of formula (I), α-D-Glucopyranose, 3-O-decyl-2-deoxy-6-O-[2-deoxy-3-O-[(3R)-3-methoxydecyl)-6-O-methyl-2-[[(−11Z)-1-oxo-11-octadecenyl)amino]-4-O-phosphono-β-D-glucopyranosyl]-2-[(1,3-dioxotetradecyl)amino]-1-(dihydrogen phosphate)] |  |  |  |  |  |  |  |  |  |  | reduced | higher | elevated in TAC-placebo mice compared to sham and the TAC groups treated | higher in the TAC-placebo animals compared to the TAC groups treated | higher in the TAC-placebo animals compared to the TAC groups treated | higher in the TAC-placebo animals compared to the TAC groups treated | increased
